Assay results published in patent publication US12274684B2, “Treatment of vasculopathy with prostacyclin and mesenchymal stem cells” (United Therapeutics Corporation, priority 2013, dated 2025).
Where “and” joins values, the source holds several entries; their conditions need not be identical. Identical values can stand only once.

Tested on: human bone marrow MSC
Experiment: Microarray gene expression analysis of MSC (Illumina Human HT12 Expression BeadChip)
Assay type: cell-based
Conditions: 24 h
Protocol: Human bone marrow MSC were expanded and seeded into six (6) T225 flasks using standard growth medium (Table 1). At 95-99% confluency, cells were thoroughly washed with PBS. Three (3) flasks were replenished with basal media containing 250 μg/mL treprostinil, (+)Tre, and the remaining three (3) flasks were replenished with unsupplemented basal media, (−)Tre. After 24 hours of culture, representative images were captured from (+) Tre and (−) Tre cultures. Conditioned media was collected from each replicate, divided into two samples of appropriate volumes, and analyzed separately for: 1) secreted proteins (Myriad RBM InflammationMAP® 1.0) and 2) exosome RNA content. Cells were lysed directly from culture flasks, processed for total RNA isolation, and analyzed for gene expression by microarray (Illumina Human HT12 Expression BeadChip). Microarray gene expression analysis was also performed on MSC from cultures without (−) or with (+) 250 ug/mL treprostinil. Three (3) biological replicates from each condition were analyzed. Of the 77,612 sequences identified among all replicates, only 24,273 were detected above the arbitrary background of 50 counts. 2,984 RNA sequences were unique to Tre(−) cultures, while 1,781 RNA sequences were unique to Tre(+) cultures (panel A). Genes detected in both conditions were further analyzed for differential expression (panel). […] Genes that are expressed only in Tre(−) cultures (that is to say, completely turned off in the Tre(+) cultures) are shown in Table 5.

Compound: CCCCC[C@H](O)CC[C@@H]1[C@H]2Cc3cccc(OCC(=O)O)c3C[C@H]2C[C@H]1O [treprostinil]
- ACTN1 (NM_001130005) Fold Change, decrease in Tre(+) vs Tre(−) (250 μg/mL): 12.7 fold
- ANGPT1 (NM_001146) Fold Change, decrease in Tre(+) vs Tre(−) (250 μg/mL): 14.6 fold
- ANK3 (NM_001204403) Fold Change, decrease in Tre(+) vs Tre(−) (250 μg/mL): 14.2 fold
- ANLN (NM_018685) Fold Change, decrease in Tre(+) vs Tre(−) (250 μg/mL): 11.7 fold
- C11orf96 (NM_001145033) Fold Change, increase in Tre(+) vs Tre(−) (250 μg/mL): 12.0 fold
- C13orf33 (NM_032849) Fold Change, increase in Tre(+) vs Tre(−) (250 μg/mL): 21.0 fold
- CD55 (NM_000574) Fold Change, increase in Tre(+) vs Tre(−) (250 μg/mL): 21.5 fold
- CD55 (NM_001114752) Fold Change, increase in Tre(+) vs Tre(−) (250 μg/mL): 13.2 fold
- CELF1 (NM_001172640) Fold Change, decrease in Tre(+) vs Tre(−) (250 μg/mL): 10.9 fold
- COL6A3 (NM_004369) Fold Change, decrease in Tre(+) vs Tre(−) (250 μg/mL): 11.7 fold
- COL21A1 (NM_030820) Fold Change, decrease in Tre(+) vs Tre(−) (250 μg/mL): 27.4 fold
- CPA4 (NM_016352) Fold Change, decrease in Tre(+) vs Tre(−) (250 μg/mL): 12.0 fold
- CTGF (NM_001901) Fold Change, decrease in Tre(+) vs Tre(−) (250 μg/mL): 31.1 fold
- CXCL12 (NM_199168) Fold Change, decrease in Tre(+) vs Tre(−) (250 μg/mL): 15.8 fold
- DDAH1 (NM_001134445) Fold Change, decrease in Tre(+) vs Tre(−) (250 μg/mL): 12.7 fold
- DKFZp547J0510 (CDNA FLJ42650 fis, clone BRACE3027478) Fold Change, decrease in Tre(+) vs Tre(−) (250 μg/mL): 13.0 fold
- DUSP1 (NM_004417) Fold Change, increase in Tre(+) vs Tre(−) (250 μg/mL): 12.9 fold
- EPB41L2 (NM_001199389) Fold Change, decrease in Tre(+) vs Tre(−) (250 μg/mL): 11.2 fold
- GDF5 (NM_000557) Fold Change, decrease in Tre(+) vs Tre(−) (250 μg/mL): 12.5 fold
- GDF15 (NM_004864) Fold Change, increase in Tre(+) vs Tre(−) (250 μg/mL): 32.1 fold
- GPRC5A (NM_003979) Fold Change, increase in Tre(+) vs Tre(−) (250 μg/mL): 13.2 fold
- HSD11B1 (NM_005525) Fold Change, increase in Tre(+) vs Tre(−) (250 μg/mL): 15.4 fold
- IDH1 (NM_005896) Fold Change, increase in Tre(+) vs Tre(−) (250 μg/mL): 13.1 fold
- IER3 (NM_003897) Fold Change, increase in Tre(+) vs Tre(−) (250 μg/mL): 22.5 fold
- IGFBP1 (NM_000596) Fold Change, increase in Tre(+) vs Tre(−) (250 μg/mL): 118.2 fold
- IL6 (NM_000600) Fold Change, increase in Tre(+) vs Tre(−) (250 μg/mL): 109.5 fold
- ISLR (NM_005545) Fold Change, decrease in Tre(+) vs Tre(−) (250 μg/mL): 10.1 fold
- LIPG (NM_006033) Fold Change, increase in Tre(+) vs Tre(−) (250 μg/mL): 13.2 fold
- LMOD1 (NM_012134) Fold Change, decrease in Tre(+) vs Tre(−) (250 μg/mL): 26.4 fold
- MEST (NM_002402) Fold Change, decrease in Tre(+) vs Tre(−) (250 μg/mL): 15.1 fold
- MEST (NM_177525) Fold Change, decrease in Tre(+) vs Tre(−) (250 μg/mL): 11.9 fold
- METTL7A (NM_014033) Fold Change, decrease in Tre(+) vs Tre(−) (250 μg/mL): 11.9 fold
- MXRA5 (NM_015419) Fold Change, decrease in Tre(+) vs Tre(−) (250 μg/mL): 32.6 fold
- NR4A2 (NM_006186) Fold Change, increase in Tre(+) vs Tre(−) (250 μg/mL): 12.5 fold
- OLFML1 (NM_198474) Fold Change, decrease in Tre(+) vs Tre(−) (250 μg/mL): 12.4 fold
- OLFML2B (NM_015441) Fold Change, decrease in Tre(+) vs Tre(−) (250 μg/mL): 20.8 fold
- PALLD (NM_001166109) Fold Change, decrease in Tre(+) vs Tre(−) (250 μg/mL): 13.0 fold
- PALLD (NM_001166110) Fold Change, increase in Tre(+) vs Tre(−) (250 μg/mL): 13.3 fold
- PDE5A (NM_033430) Fold Change, decrease in Tre(+) vs Tre(−) (250 μg/mL): 15.2 fold
- PITPNC1 (NM_181671) Fold Change, increase in Tre(+) vs Tre(−) (250 μg/mL): 16.0 fold
- PLIN2 (NM_001122) Fold Change, increase in Tre(+) vs Tre(−) (250 μg/mL): 47.0 fold
- PRELP (NM_002725) Fold Change, decrease in Tre(+) vs Tre(−) (250 μg/mL): 12.9 fold
- PRKAG2 (NM_024429) Fold Change, increase in Tre(+) vs Tre(−) (250 μg/mL): 78.6 fold
- PTP4A1 (NM_003463) Fold Change, increase in Tre(+) vs Tre(−) (250 μg/mL): 11.8 fold
- RCAN1 (NM_203418) Fold Change, increase in Tre(+) vs Tre(−) (250 μg/mL): 10.9 fold
- RCAN2 (NM_001251974) Fold Change, decrease in Tre(+) vs Tre(−) (250 μg/mL): 11.6 fold
- RND3 (NM_005168) Fold Change, increase in Tre(+) vs Tre(−) (250 μg/mL): 12.9 fold
- S100A4 (NM_002961) Fold Change, decrease in Tre(+) vs Tre(−) (250 μg/mL): 10.5 fold
- SAT1 (transcript variant 2, non-coding RNA) Fold Change, increase in Tre(+) vs Tre(−) (250 μg/mL): 13.5 fold
- SCG2 (NM_003469) Fold Change, increase in Tre(+) vs Tre(−) (250 μg/mL): 21.3 fold
- SIK1 (NM_173354) Fold Change, increase in Tre(+) vs Tre(−) (250 μg/mL): 20.3 fold
- SLC2A12 (NM_145176) Fold Change, decrease in Tre(+) vs Tre(−) (250 μg/mL): 12.2 fold
- SLC3A2 (NM_001013251) Fold Change, increase in Tre(+) vs Tre(−) (250 μg/mL): 10.5 fold
- SLC6A15 (NM_182767) Fold Change, increase in Tre(+) vs Tre(−) (250 μg/mL): 23.7 fold
- SLC14A1 (NM_015865) Fold Change, decrease in Tre(+) vs Tre(−) (250 μg/mL): 18.5 fold
- SREBF1 (NM_004176) Fold Change, increase in Tre(+) vs Tre(−) (250 μg/mL): 11.5 fold
- SYNPO2 (NM_001128933) Fold Change, decrease in Tre(+) vs Tre(−) (250 μg/mL): 24.6 fold
- VEGFA (NM_001025370) Fold Change, increase in Tre(+) vs Tre(−) (250 μg/mL): 13.5 fold
- VEGFA (NM_001171626) Fold Change, increase in Tre(+) vs Tre(−) (250 μg/mL): 11.5 fold
- ANGPTL4 (NM_139314) expression, Rep 1-3 (Tre(+) 250 μg/mL): 1570 counts and 2337 counts and 1371 counts
- ANLN (NM_018685) expression, Rep 1-3 (Tre(+) 250 μg/mL): 67 counts and 68 counts and 37 counts
